Assay results: ChEMBL document CHEMBL1201862, “PubChem BioAssay data set” (2004)
Calls of active or inactive are those of the source. Unless noted, the calls are words filed in the database; no cut-off is given here.

Tests used:
Fibrinogen beta chain [1] = target: T1, Fibrinogen beta chain (Homo sapiens, UniProt P02675); assay: Fluorescence polarization-based biochemical high throughput dose response assay to identify inhibitors that disrupt the binding of a cyclic peptide (Tn6) to the fibrin proteolytic product D-Dimer and fragment E complex [DD(E )].
T1 sequence (P02675 whole entry, the tested form may be a part): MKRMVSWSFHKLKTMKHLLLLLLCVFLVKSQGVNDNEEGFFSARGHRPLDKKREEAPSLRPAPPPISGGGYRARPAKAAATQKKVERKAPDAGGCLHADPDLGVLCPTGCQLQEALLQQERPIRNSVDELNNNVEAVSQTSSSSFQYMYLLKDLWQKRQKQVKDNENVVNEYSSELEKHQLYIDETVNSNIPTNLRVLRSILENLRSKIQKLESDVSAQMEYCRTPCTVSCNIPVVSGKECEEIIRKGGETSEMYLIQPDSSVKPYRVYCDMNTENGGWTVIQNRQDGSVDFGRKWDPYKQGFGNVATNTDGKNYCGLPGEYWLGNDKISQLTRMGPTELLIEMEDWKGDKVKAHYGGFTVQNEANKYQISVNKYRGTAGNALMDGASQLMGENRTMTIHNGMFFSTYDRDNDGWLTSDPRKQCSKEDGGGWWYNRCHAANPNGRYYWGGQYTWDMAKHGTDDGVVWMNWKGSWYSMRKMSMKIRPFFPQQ

Fibrinogen beta chain [2] = target: T1, Fibrinogen beta chain; assay: Fluorescence polarization-based biochemical high throughput dose response assay to identify inhibitors that disrupt the binding of a cyclic peptide (Tn7) to the fibrin proteolytic product D-Dimer and fragment E complex [DD(E )].
[3] = SNB-75 astrocytoma cell viability loss, late-stage follow-up, mechanism study for HRAS target identification, CellTiter-Glo ATP luminescence, several timepoints, dry powder (AID 720624); type: functional, cell-based
[4] = SR lymphoma cell viability over time, late-stage follow-up, mechanism study for HRAS target identification, CellTiter-Glo ATP luminescence, 8-48 h, dry powder (AID 720608); type: functional, cell-based
[5] = CCRF-CEM leukemia cell viability loss, dose response, HRAS target identification, CellTiter-Glo ATP luminescence, 8/24/48 h, dry powder (AID 720607); type: functional, cell-based
[6] = HT-29 colorectal cell cytotoxicity over time, dose response, HRas target identification project, CellTiter-Glo, multiple timepoints, dry powder (AID 720598); type: functional, cell-based
[7] = LOX IMVI melanoma cell viability loss, dose response, HRAS target identification, CellTiter-Glo ATP luminescence, 8/24/48 h, dry powder (AID 720602); type: functional, cell-based
[8] = HeLa cell cytotoxicity, dose response, cytotoxicity control, 24 h, plate reader, powder samples, set 3 (AID 651864); type: functional, cell-based
[9] = cytotoxicity in HepG2 cells, dose response, cytotoxicity control, cell-based, plate reader, dry powder (AID 651947); type: functional
[10] = P. falciparum Dd2 growth inhibitors, dose response, SYBR Green, cherry-picked samples (AID 1159567); type: functional, cell-based
[11] = HepG2 cell cytotoxicity, dose response, cytotoxicity control, cherry-picked samples (AID 1159577); type: functional, cell-based
[12] = P. falciparum Dd2 growth inhibitors, dose response, SYBR Green, dry powder samples (AID 1159566); type: functional, cell-based;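 further: potency for growth inhibition with lower SYBR green DNA signal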
[13] = HepG2 cell cytotoxicity, dose response, cytotoxicity control, plate reader, dry powder samples (AID 1159569); type: functional, cell-based;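 further: inhibitor potency with signal falling toward the positive control level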
[14] = P. falciparum ATP4 D1247Y mutant growth inhibitors, dose response, NITD609-resistant line, SYBR Green, dry powder (AID 1159571); type: functional, cell-based;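 further: parasites synchronized at ring stage by sorbitol before testing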
[15] = P. falciparum 3D7-ScDHODH growth inhibitors, dose response, SYBR Green, dry powder samples (AID 1159570); type: functional, cell-based;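 further: parasite growth measured after 72 hours of compound exposure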
[16] = Mtb BioA inhibitors by displacement, dose response, biochemical, coupled fluorescence displacement, 20-point, dry powder (AID 743357); type: functional
[17] = A375 melanoma cell viability loss, dose response, counter-screen for MITF inhibitor project, CellTiter-Glo luminescence, dry powder, set 4 (AID 624364); type: functional, cell-based; conditions: A-375;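 further: A375 melanoma cells are MITF independent so this is a counter screen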
[18] = A375 melanoma cell cytotoxicity, dose response, counter-screen for MITF inhibitor project, CellTiter-Glo luminescence, dry powder, set 2 (AID 624489); type: functional, cell-based; conditions: A-375;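 further: actives are compounds lowering A375 viability meaning general cytotoxicity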

CCOC(=O)C1(C)C(=O)CC2c3nc4ccccc4cc3CN2C1=O (stereo not drawn)
IC50 (Fibrinogen beta chain [1]): 9.24 µM (active)
IC50 (Fibrinogen beta chain [2]): > 83.2 µM (inactive)

Cc1onc(C(=O)N2CCN(C(c3ccc(Cl)cc3)c3ccc(Cl)cc3)CC2)c1[N+](=O)[O-]
AC50 [3]: 0.723 µM (active)
AC50 [4]: 0.181 µM (active)
AC50 [5]: 0.234 µM (active)
AC50 [6]: 1.3 µM (active)
AC50 [7]: 0.199 µM (active)

CCn1nnc(CCc2ccc(N3CCCC3)cc2)n1
AC50 [8]: > 160 µM (inactive)

c1ccc(CSc2nnc(-c3ccccc3)s2)cc1
AC50 [9]: 33.8 µM (active)

Cc1nc(N2[C@H](CO)[C@H](c3ccccc3)[C@H]2CNCC2CCC2)sc1C
AC50 [10]: 1.8 µM (active)
AC50 [11]: 29.3 µM (active)
AC50 [12]: 0.881 µM (active)
AC50 [13]: > 100 µM (inactive)
AC50 [14]: 1.34 µM (active)
AC50 [15]: 1.47 µM (active)

CC(=O)c1ccc(N2CCN(C(=O)c3cc(Cl)c4c(c3)OCO4)CC2)cc1
AC50 [16]: 12.2 µM (active)

COc1ccc(C2=C(NC(=O)c3ccccc3OC)C(=O)c3ccccc3C2=O)cc1
AC50 [17]: 38.1 µM (active)
AC50 [18]: 32.4 µM (active)
